Assay results reported in ChEMBL document CHEMBL3621169, “Synthesis of tetrazole compounds as a novel type of potential antimicrobial agents and their synergistic effects with clinical drugs and interactions with calf thymus DNA” (Medchemcomm, 2015).
≈ marks a conversion by molar mass, not a printed value. Calls of active or inactive are those of the source. The calls are words filed in the database; no cut-off is given here.

Columns and labels:
[1] = Ionization constant, pKa of the compound by UV spectroscopy; type: physicochemical
Micrococcus luteus [2] = assay: Antibacterial activity against Micrococcus luteus ATCC 4698 by micro dilution checkerboard method in the presence of chloromycin; type: functional
Bacillus spizizenii [3] = assay: Antibacterial activity against Bacillus subtilis ATCC 6633 by micro dilution checkerboard method in the presence of chloromycin; type: functional
Calf thymus DNA [4] = assay: Competitive binding affinity to calf thymus DNA by UV-visible spectroscopy in presence of neutral red; type: nucleic-acid assay; conditions: Bos taurus
Cyberlindnera jadinii [5] = assay: Antifungal activity against Candida utilis ATCC 9950 by micro dilution checkerboard method in the presence of fluconazole; type: functional
Bacillus sp. [6] = assay: Antibacterial activity against Bacillus proteus ATCC 13315 by micro dilution checkerboard method in the presence of chloromycin; type: functional
Micrococcus luteus [7] = assay: Antibacterial activity against Micrococcus luteus ATCC 4698 by micro dilution checkerboard method in the presence of norfloxacin; type: functional
[8] = n-octanol/water partition coefficient, log P of the compound at 25 deg C after 24 hrs by saturation shake flask based UV spectroscopy; type: physicochemical
Calf thymus DNA [9] = assay: Binding affinity to calf thymus DNA by UV-visible spectroscopy; type: nucleic-acid assay; conditions: Bos taurus
Bacillus spizizenii [10] = assay: Antibacterial activity against Bacillus subtilis ATCC 6633 by micro dilution checkerboard method in the presence of norfloxacin; type: functional
Bacillus sp. [11] = assay: Antibacterial activity against Bacillus proteus ATCC 13315 after 24 hrs by micro broth dilution method; type: functional; conditions: Bacillus sp. (in: firmicutes), ATCC 13315, 24 h
Staphylococcus aureus [12] = assay: Antibacterial activity against Staphylococcus aureus ATCC 25923 by micro dilution checkerboard method in the presence of norfloxacin; type: functional
Staphylococcus aureus [13] = assay: Antibacterial activity against methicillin-resistant Staphylococcus aureus N315 by micro dilution checkerboard method in the presence of norfloxacin; type: functional
Shigella dysenteriae [14] = assay: Antibacterial activity against Shigella dysenteriae ATCC 51252 by micro dilution checkerboard method in the presence of chloromycin; type: functional
Candida [15] = assay: Antifungal activity against Candida mycoderma after 24 hrs by micro broth dilution method; type: functional
Candida [16] = assay: Antifungal activity against Candida mycoderma by micro dilution checkerboard method in the presence of fluconazole; type: functional
Aspergillus flavus [17] = assay: Antifungal activity against Aspergillus flavus by micro dilution checkerboard method in the presence of fluconazole; type: functional
Staphylococcus aureus [18] = assay: Antibacterial activity against Staphylococcus aureus ATCC 25923 by micro dilution checkerboard method in the presence of chloromycin; type: functional
Bacillus sp. [19] = assay: Antibacterial activity against Bacillus proteus ATCC 13315 by micro dilution checkerboard method in the presence of norfloxacin; type: functional
Pseudomonas aeruginosa [20] = assay: Antibacterial activity against Pseudomonas aeruginosa ATCC 27853 by micro dilution checkerboard method in the presence of norfloxacin; type: functional
Staphylococcus aureus [21] = assay: Antibacterial activity against Staphylococcus aureus ATCC 25923 after 24 hrs by micro broth dilution method; type: functional; conditions: ATCC 25923, 24 h
Escherichia coli [22] = assay: Antibacterial activity against Escherichia coli DH52 by micro dilution checkerboard method in the presence of chloromycin; type: functional
Aspergillus flavus [23] = assay: Antifungal activity against Aspergillus flavus after 24 hrs by micro broth dilution method; type: functional
Staphylococcus aureus [24] = assay: Antibacterial activity against methicillin-resistant Staphylococcus aureus N315 by micro dilution checkerboard method in the presence of chloromycin; type: functional
Pseudomonas aeruginosa [25] = assay: Antibacterial activity against Pseudomonas aeruginosa ATCC 27853 by micro dilution checkerboard method in the presence of chloromycin; type: functional
Staphylococcus aureus [26] = assay: Antibacterial activity against methicillin-resistant Staphylococcus aureus N315 after 24 hrs by micro broth dilution method; type: functional; conditions: N315, 24 h
Shigella dysenteriae [27] = assay: Antibacterial activity against Shigella dysenteriae ATCC 51252 by micro dilution checkerboard method in the presence of norfloxacin; type: functional
Shigella dysenteriae [28] = assay: Antibacterial activity against Shigella dysenteriae ATCC 51252 after 24 hrs by micro broth dilution method; type: functional; conditions: ATCC 51252, 24 h
Escherichia coli [29] = assay: Antibacterial activity against Escherichia coli DH52 after 24 hrs by micro broth dilution method; type: functional; conditions: DH52, 24 h
Pseudomonas aeruginosa [30] = assay: Antibacterial activity against Pseudomonas aeruginosa ATCC 27853 after 24 hrs by micro broth dilution method; type: functional; conditions: ATCC 27853, 24 h
Cyberlindnera jadinii [31] = assay: Antifungal activity against Candida utilis ATCC 9950 after 24 hrs by micro broth dilution method; type: functional; conditions: Williopsis jadinii, ATCC 9950, 24 h
Candida albicans [32] = assay: Antifungal activity against Candida albicans ATCC 90029 by micro dilution checkerboard method in the presence of fluconazole; type: functional
Candida albicans [33] = assay: Antifungal activity against Candida albicans ATCC 90029 after 24 hrs by micro broth dilution method; type: functional; conditions: ATCC 90029, 24 h
Escherichia coli [34] = assay: Antibacterial activity against Escherichia coli DH52 by micro dilution checkerboard method in the presence of norfloxacin; type: functional
Micrococcus luteus [35] = assay: Antibacterial activity against Micrococcus luteus ATCC 4698 after 24 hrs by micro broth dilution method; type: functional; conditions: ATCC 4698, 24 h
Bacillus spizizenii [36] = assay: Antibacterial activity against Bacillus subtilis ATCC 6633 after 24 hrs by micro broth dilution method; type: functional; conditions: ATCC 6633, 24 h
[37] = Bacillus sp. (in: firmicutes), ATCC 13315
[38] = Staphylococcus aureus, ATCC 25923
[39] = Pseudomonas aeruginosa, ATCC 27853

Compound: Clc1ccccc1CN(Cc1nnn[nH]1)c1ccccc1
- pKa [1]: 4.34
- fractional inhibitory concentration index (FICI) (Micrococcus luteus [2]): 0.5
- MIC (Micrococcus luteus [2]; Micrococcus luteus, ATCC 4698): 8 µg/mL
- fractional inhibitory concentration index (FICI) (Bacillus spizizenii [3]): 0.375
- MIC (Bacillus spizizenii [3]; Bacillus spizizenii, ATCC 6633): 16 µg/mL
- Activity (Calf thymus DNA [4]): Active
- fractional inhibitory concentration index (FICI) (Cyberlindnera jadinii [5]): 0.5
- MIC (Cyberlindnera jadinii [5]; Williopsis jadinii, ATCC 9950): 4 µg/mL
- fractional inhibitory concentration index (FICI) (Bacillus sp. [6]): 0.75
- MIC (Bacillus sp. [6]; [37]): 32 µg/mL
- fractional inhibitory concentration index (FICI) (Micrococcus luteus [7]): 0.75
- MIC (Micrococcus luteus [7]; Micrococcus luteus, ATCC 4698): 8 µg/mL
- logP at 24 h [8]: 1.09
- Activity (Calf thymus DNA [9]): Dose-dependent effect
- K (Calf thymus DNA [9]): 4.16 ×10⁴ L/mol
- fractional inhibitory concentration index (FICI) (Bacillus spizizenii [10]): 0.625
- MIC (Bacillus spizizenii [10]; Bacillus spizizenii, ATCC 6633): 8 µg/mL
- MIC (Bacillus sp. [11]): 16 µg/mL (≈ 53.4 µM)
- fractional inhibitory concentration index (FICI) (Staphylococcus aureus [12]): 0.5
- MIC (Staphylococcus aureus [12]; [38]): 16 µg/mL
- fractional inhibitory concentration index (FICI) (Staphylococcus aureus [13]): 0.75
- MIC (Staphylococcus aureus [13]; Staphylococcus aureus, N315): 8 µg/mL
- fractional inhibitory concentration index (FICI) (Shigella dysenteriae [14]): 0.5
- MIC (Shigella dysenteriae [14]; Shigella dysenteriae, ATCC 51252): 8 µg/mL
- MIC (Candida [15]): 4 µg/mL (≈ 13.3 µM)
- fractional inhibitory concentration index (FICI) (Candida [16]): 0.5
- MIC (Candida [16]; Candida): 2 µg/mL
- fractional inhibitory concentration index (FICI) (Aspergillus flavus [17]): 0.5
- MIC (Aspergillus flavus [17]; Aspergillus flavus): 4 µg/mL
- fractional inhibitory concentration index (FICI) (Staphylococcus aureus [18]): 0.75
- MIC (Staphylococcus aureus [18]; [38]): 16 µg/mL
- fractional inhibitory concentration index (FICI) (Bacillus sp. [19]): 0.5
- MIC (Bacillus sp. [19]; [37]): 16 µg/mL
- fractional inhibitory concentration index (FICI) (Pseudomonas aeruginosa [20]): 0.75
- MIC (Pseudomonas aeruginosa [20]; [39]): 16 µg/mL
- MIC (Staphylococcus aureus [21]): 32 µg/mL (≈ 107 µM)
- fractional inhibitory concentration index (FICI) (Escherichia coli [22]): 0.75
- MIC (Escherichia coli [22]; Escherichia coli, DH52): 16 µg/mL
- MIC (Aspergillus flavus [23]): 8 µg/mL (≈ 26.7 µM)
- fractional inhibitory concentration index (FICI) (Staphylococcus aureus [24]): 0.5
- MIC (Staphylococcus aureus [24]; Staphylococcus aureus, N315): 8 µg/mL
- fractional inhibitory concentration index (FICI) (Pseudomonas aeruginosa [25]): 0.5
- MIC (Pseudomonas aeruginosa [25]; [39]): 16 µg/mL
- MIC (Staphylococcus aureus [26]): 32 µg/mL (≈ 107 µM)
- MIC (Shigella dysenteriae [27]): 4 µg/mL
- MIC (Shigella dysenteriae [28]): 32 µg/mL (≈ 107 µM)
- MIC (Escherichia coli [29]): 16 µg/mL (≈ 53.4 µM)
- MIC (Pseudomonas aeruginosa [30]): 16 µg/mL (≈ 53.4 µM)
- MIC (Cyberlindnera jadinii [31]): 4 µg/mL (≈ 13.3 µM)
- fractional inhibitory concentration index (FICI) (Candida albicans [32]): 0.75
- MIC (Candida albicans [32]; Candida albicans, ATCC 90029): 2 µg/mL
- MIC (Candida albicans [33]): 8 µg/mL (≈ 26.7 µM)
- fractional inhibitory concentration index (FICI) (Escherichia coli [34]): 0.625
- MIC (Escherichia coli [34]; Escherichia coli, DH52): 8 µg/mL
- MIC (Micrococcus luteus [35]): 32 µg/mL (≈ 107 µM)
- MIC (Bacillus spizizenii [36]): 16 µg/mL (≈ 53.4 µM)

Compound: CCCCCCCCN(Cc1nnn[nH]1)c1ccccc1
- pKa [1]: 4.83
- logP at 24 h [8]: 2.24
- MIC (Bacillus sp. [11]): 128 µg/mL (≈ 445 µM)
- MIC (Candida [15]): 32 µg/mL (≈ 111 µM)
- MIC (Staphylococcus aureus [21]): 128 µg/mL (≈ 445 µM)
- MIC (Aspergillus flavus [23]): 128 µg/mL (≈ 445 µM)
- MIC (Staphylococcus aureus [26]): 128 µg/mL (≈ 445 µM)
- MIC (Shigella dysenteriae [28]): 128 µg/mL (≈ 445 µM)
- MIC (Escherichia coli [29]): 64 µg/mL (≈ 223 µM)
- MIC (Pseudomonas aeruginosa [30]): 256 µg/mL (≈ 891 µM)
- MIC (Cyberlindnera jadinii [31]): 128 µg/mL (≈ 445 µM)
- MIC (Candida albicans [33]): 64 µg/mL (≈ 223 µM)
- MIC (Micrococcus luteus [35]): 64 µg/mL (≈ 223 µM)
- MIC (Bacillus spizizenii [36]): 128 µg/mL (≈ 445 µM)

Compound: Cc1ccc(N(Cc2nnn[nH]2)Cc2ccc(Cl)cc2Cl)cc1
- pKa [1]: 4.26
- logP at 24 h [8]: 1.99
- MIC (Bacillus sp. [11]): 32 µg/mL (≈ 91.9 µM)
- MIC (Candida [15]): 8 µg/mL (≈ 23 µM)
- MIC (Staphylococcus aureus [21]): 32 µg/mL (≈ 91.9 µM)
- MIC (Aspergillus flavus [23]): 16 µg/mL (≈ 45.9 µM)
- MIC (Staphylococcus aureus [26]): 16 µg/mL (≈ 45.9 µM)
- MIC (Shigella dysenteriae [28]): 32 µg/mL (≈ 91.9 µM)
- MIC (Escherichia coli [29]): 16 µg/mL (≈ 45.9 µM)
- MIC (Pseudomonas aeruginosa [30]): 32 µg/mL (≈ 91.9 µM)
- MIC (Cyberlindnera jadinii [31]): 16 µg/mL (≈ 45.9 µM)
- MIC (Candida albicans [33]): 16 µg/mL (≈ 45.9 µM)
- MIC (Micrococcus luteus [35]): 32 µg/mL (≈ 91.9 µM)
- MIC (Bacillus spizizenii [36]): 64 µg/mL (≈ 184 µM)

Compound: Fc1ccccc1CN(Cc1nnn[nH]1)c1ccccc1
- pKa [1]: 4.22
- logP at 24 h [8]: 1.28
- MIC (Bacillus sp. [11]): 64 µg/mL (≈ 226 µM)
- MIC (Candida [15]): 16 µg/mL (≈ 56.5 µM)
- MIC (Staphylococcus aureus [21]): 64 µg/mL (≈ 226 µM)
- MIC (Aspergillus flavus [23]): 64 µg/mL (≈ 226 µM)
- MIC (Staphylococcus aureus [26]): 64 µg/mL (≈ 226 µM)
- MIC (Shigella dysenteriae [28]): 128 µg/mL (≈ 452 µM)
- MIC (Escherichia coli [29]): 64 µg/mL (≈ 226 µM)
- MIC (Pseudomonas aeruginosa [30]): 64 µg/mL (≈ 226 µM)
- MIC (Cyberlindnera jadinii [31]): 32 µg/mL (≈ 113 µM)
- MIC (Candida albicans [33]): 32 µg/mL (≈ 113 µM)
- MIC (Micrococcus luteus [35]): 64 µg/mL (≈ 226 µM)
- MIC (Bacillus spizizenii [36]): 32 µg/mL (≈ 113 µM)
